Test results taken from patent US20140057895A1, “INDAZOLE- AND PYRROLOPYRIDINE-DERIVATIVE AND PHARMACEUTICAL USE THEREOF” (priority 2011, published 2014).
Structures can show the parent of a compound that is named as a salt.

Columns and labels:
[1] = molecular target: T1, human 5-HT4b receptor (Homo sapiens, UniProt Q13639); assay: Test Example 2: Serotonin 4 (5-HT4) receptor agonist activity assay, cAMP HTRF in CHO cells (Table 97); type: cell-based; settings: cAMP in CHO cells expressing human 5-HT4b receptor, mean value; for Emax: 0.25 h, intrinsic activity, maximal activity of 5-HT defined as 100%, read-out: IA (%); for EC50: concentration showing 50% of IA
T1 construct: expressed in transfected cells; host or cells: CHO cells (G418 selection)
T1 sequence (Q13639 whole entry): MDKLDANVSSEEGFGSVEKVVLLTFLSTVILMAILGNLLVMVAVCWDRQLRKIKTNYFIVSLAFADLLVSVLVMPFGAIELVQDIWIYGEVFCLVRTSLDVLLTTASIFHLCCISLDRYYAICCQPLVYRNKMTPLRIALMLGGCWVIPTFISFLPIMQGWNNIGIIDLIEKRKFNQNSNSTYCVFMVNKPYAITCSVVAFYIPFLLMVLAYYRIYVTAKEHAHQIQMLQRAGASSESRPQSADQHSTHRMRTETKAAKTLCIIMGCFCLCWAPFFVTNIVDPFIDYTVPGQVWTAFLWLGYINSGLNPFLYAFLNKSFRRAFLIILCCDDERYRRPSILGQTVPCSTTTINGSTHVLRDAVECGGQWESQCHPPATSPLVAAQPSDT
Method: The cAMP measurement test used herein was carried out by using CISBIO HTRF (trademark) cAMP Hirange kit according to the manufacturer's instructions attached therewith.
CHO cells expressing human 5-HT4b receptor were incubated in Medium 1 [DMEM/1% NEAA, 1% penicillin/streptomycin (P/S), 0.2 mg/mL GENETICIN (G418), 10% FBS] at 37° C. under 5% CO2 condition. Then, the cells were put into Medium 2 (DMEM/10000 cut FBS, G-418, P/S, NEAA) for 1 to 2 hours, and collected by treating with trypsin containing EDTA. The collected cells were suspended in Assay Buffer 1 [100 mM Hanks/HEPES buffer (pH 7.4)], the suspended cells were mixed with the testing compound on 384-well plates, and the cells were incubated at 31° C. for 15 minutes. To the cells were added cAMP-cryptate solution and cAMP-d2 solution, and they were incubated at room temperature for 1 hour. Then, time-resolved fluorescence was measured by En Vision (excitation wavelength: 330 nm, fluorescence wavelength: 620/665 nm). An intrinsic activity of the compound [IA (%)] and a concentration showing 50% of IA [EC50 (nM)] were calculated from the obtained results. In particular, the intrinsic activity (IA) was calculated on the basis of the maximal activity of 5-HT (measured from 10^−11 M to 10^−7 M) defined as 100%.
(§1) In the following table, the compounds used in the test are shown in numbers which correspond to the Example numbers above where the preparations of the compounds are described.

[2] = molecular target: T2, 5-HT4 receptor (Cavia porcellus, UniProt O70528); assay: Test Example 1: Serotonin 4 (5-HT4) receptor binding assay, [3H]-GR113808, guinea pig striatum membranes (Table 96); settings: Guinea pig 5-HT4 receptor binding assay, [3H]-GR113808, striatum membranes; mean value of each group
T2 construct: striatum was isolated which was cryopreserved at −80° C. until use; from tissue; host or cells: guinea pig (Slc-Hartley) striatum membranes
T2 sequence (O70528 whole entry): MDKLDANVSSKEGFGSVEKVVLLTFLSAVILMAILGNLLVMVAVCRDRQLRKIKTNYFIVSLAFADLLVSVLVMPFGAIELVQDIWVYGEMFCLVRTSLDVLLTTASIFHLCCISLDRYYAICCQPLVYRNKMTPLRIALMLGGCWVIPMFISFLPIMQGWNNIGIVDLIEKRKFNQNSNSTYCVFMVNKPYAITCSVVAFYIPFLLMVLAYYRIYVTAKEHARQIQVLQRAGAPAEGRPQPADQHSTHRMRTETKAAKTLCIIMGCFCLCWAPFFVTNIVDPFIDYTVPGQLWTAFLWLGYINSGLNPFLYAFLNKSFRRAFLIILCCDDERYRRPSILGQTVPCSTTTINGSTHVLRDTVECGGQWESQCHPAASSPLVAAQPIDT
Method: The 5-HT4 receptor binding assay and preparations of receptor membrane preparations herein were carried out according to a method of Grossman et al. [see, British J. Pharmacol., (1993) 109, 618].
Slc-Hartley guinea pigs (body weight 300 g to 400 g) were decapitated to remove brain rapidly, and striatum was isolated which was cryopreserved at −80° C. until use. To the obtained tissues were added fifteen fold of Hepes buffer (50 mM, pH 7.4, 4° C.), and the mixture was homogenized by Teflon (trademark) homogenizer and centrifuged at 48,000×g (4° C.) for 15 minutes. To the resulting precipitate was added Hepes buffer (1 ml) to 30 mg by wet weight of tissues, and the mixture was suspended to give receptor membrane preparations.
To an assay tube were added 0.1 nM [^3H]-GR113808 {chemical name: [1-[2-(methylsulfonylamino)ethyl]-4-piperidinyl]methyl 1-methylindole-3-carboxylate}, receptor membrane preparations, and Hepes buffer (50 mM, pH 7.4, 4° C., 1 ml) containing test compounds or 30 μM serotonin; and the mixture was incubated at 37° C. for 30 minutes. On quenching the reaction, the mixture was rapidly filtered on whatman GF/B filter, which was presoaked in 0.1% polyethyleneimine for 1 hour, by using Brandel cell Harvester, and washed with ice-cooled 50 mM Tris-HCl (pH 7.7, 4 ml) three times. To the filter after filtration was added a liquid scintillator (Ecoscint), and then a radioactivity was determined by a liquid scintillation counter.
50% Inhibition concentrations (IC50) were determined from inhibition rates of test compounds to specific bindings which were obtained by subtracting nonspecific bindings from total binding amounts of [^3H]-GR113808.
as §1

[3] = molecular target: T1, human 5-HT4b receptor; assay: Test Example 4: Serotonin 4 (5-HT4) receptor agonist activity assay, cAMP HTRF in CHO cells (Table 100); type: cell-based; settings: mean value; for Emax: CHO, 0.25 h, intrinsic activity, maximal activity of 5-HT defined as 100%, read-out: IA (%); for EC50: concentration showing 50% of IA
Summary of the method: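 CHO cells expressing human 5-HT4b receptor, serum-reduced for 1–2 h, were suspended in Hanks/HEPES pH 7.4 and exposed to compound for 15 min at 31° C. cAMP detected by HTRF (cryptate/d2, 1 h RT, 620/665 nm). EC50 and intrinsic activity relative to maximal 5-HT response (10^−11 to 10^−7 M) set at 100%.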

[4] = molecular target: T2, 5-HT4 receptor; assay: Test Example 3: Guinea pig 5-HT4 receptor binding assay, [3H]-GR113808, striatum membranes (Table 98); settings: Guinea pig 5-HT4 receptor binding assay, [3H]-GR113808, striatum membranes; mean value of each group; read-out: IC50
Summary of the method: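 Striatal membranes from Slc-Hartley guinea pigs were incubated with 0.1 nM [3H]-GR113808 and test compounds in 50 mM Hepes pH 7.4 at 37° C for 30 min; nonspecific binding was defined with 30 μM serotonin. Bound radioactivity was collected by filtration, and IC50 was derived from inhibition of specific binding.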

[5] = molecular target: T3, Human 5-HT4 receptor (5-HT4b) (Homo sapiens, UniProt Q13639); assay: Test Example 3: Human 5-HT4 receptor binding assay, membranes of CHO-K1 cells stably expressing 5-HT4b receptors (Table 99); settings: mean value of each group
T3 construct: expressed in transfected cells; membrane preparation
T3 sequence (Q13639 whole entry): as the sequence (Q13639 whole entry) above
Summary of the method: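 Membranes from CHO-K1 cells stably expressing 5-HT4b incubated with 0.1 nM [3H]-GR113808 in 50 mM Hepes pH 7.4, 37 °C, 30 min; nonspecific binding with 30 μM serotonin. Bound label collected by filtration and scintillation counting; IC50 from inhibition of specific binding.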

Compound | Emax [1] [%] | EC50 [1] [nM] | IC50 [2] [nM] | Emax [3] [%] | EC50 [3] [nM] | IC50 [4] [nM] | IC50 [5] [nM]
COCCCN1CCC(c2nc(-n3nc(C4CC4)c4ccccc43)no2)CC1 [Example 88, 3-cyclopropyl-1-{5-[1-(3-methoxypropyl)piperidin-4-yl]-1,2,4-oxadiazol-3-yl}-1H-indazole trifluoroacetate] | 37 | 16.4 | 33.5 |  |  |  | 
CCC(C)N1CCC(c2nc(-n3nc(C4CC4)c4ccccc43)no2)CC1 (centres unmarked) [Example 102, 1-{5-[1-(butan-2-yl)piperidin-4-yl]-1,2,4-oxadiazol-3-yl}-3-cyclopropyl-1H-indazole trifluoroacetate] | 26 | 8 | < 20 |  |  |  | 
CCc1nn(-c2noc(C3CCN(CC(C)C)CC3)n2)c2ccccc12 [Example 103, 3-ethyl-1-(5-[1-(2-methylpropyl)piperidin-4-yl]-1,2,4-oxadiazol-3-yl}-1H-indazole] | 59 | 11 | < 20 |  |  |  | 
CCc1nn(-c2noc(C3CCN(C4CCN(C(C)=O)CC4)CC3)n2)c2c(F)cccc12 [Example 229, 1-{4-[3-(3-ethyl-7-fluoro-1H-indazol-1-yl)-1,2,4-oxadiazol-5-yl]-1,4′-bipiperidin-1′-yl}ethanone hydrochloride] | 55 | 2.9 | < 20 |  |  |  | 
CCc1nn(-c2noc(C3CCN(CC4CCCO4)CC3)n2)c2ccccc12 (centres unmarked) [Example 132, 3-ethyl-1-{5-[1-(tetrahydrofuran-2-ylmethyl)piperidin-4-yl]-1,2,4-oxadiazol-3-yl}-1H-indazole] | 29 | 14.7 | < 20 |  |  |  | 
CCc1nn(-c2noc(C3CCN(C[C@@H]4CCCN4C(=O)OC)CC3)n2)c2ccccc12 [Example 178, methyl (2S)-2-({4-[3-(3-ethyl-1H-indazol-1-yl)-1,2,4-oxadiazol-5-yl]piperidin-1-yl}methyl)pyrrolidine-1-carboxylate] | 38 | 10.9 | < 20 |  |  |  | 
CCN[C@H]1C[C@@H](c2nc(-n3nc(CC)c4ccc(F)cc43)no2)C1 [Example 278, cis-N-ethyl-3-[3-(3-ethyl-6-fluoro-1H-indazol-1-yl)-1,2,4-oxadiazol-5-yl]cyclobutanamine] |  |  | < 20 |  |  |  | 
CCc1nn(-c2noc(C3CCN(CC4CN(C(=O)COC)C4)CC3)n2)c2c(F)cccc12 [Example 224, 1-[3-({4-[3-(3-ethyl-7-fluoro-1H-indazol-1-yl)-1,2,4-oxadiazol-5-yl]piperidin-1-yl}methyl)azetidin-1-yl]-2-methoxyethanone hydrochloride] |  |  | < 20 | 73.9 | 6.7 | < 20 | 
CC(C)c1nn(-c2noc(C[C@@H]3CCN(C4CCN(S(C)(=O)=O)CC4)C3)n2)c2c(F)cccc12 [Example 508, 7-fluoro-1-[5-({(3S)-1-[1-(methylsulfonyl)piperidin-4-yl]pyrrolidin-3-yl}methyl)-1,2,4-oxadiazol-3-yl]-3-(propan-2-yl)-1H-indazole] |  |  |  | 54 | 3.7 |  | < 20
CC(C)c1nn(-c2noc(C[C@@H]3CCN(CC4CN(C(=O)CO)C4)C3)n2)c2c(F)cccc12 [Example 548, 1-(3-{[(3S)-3-({3-[7-fluoro-3-(propan-2-yl)-1H-indazol-1-yl]-1,2,4-oxadiazol-5-yl}methyl)pyrrolidin-1-yl]methyl}azetidin-1-yl)-2-hydroxyethanone] |  |  |  | 73 | 6.4 |  | < 20
CC(C)c1nn(-c2noc(C[C@H]3CCN(C[C@@H]4CCCN4C(=O)CO)C3)n2)c2c(F)cccc12 [Example 540, 1-[(2S)-2-{[(3R)-3-({3-[7-fluoro-3-(propan-2-yl)-1H-indazol-1-yl]-1,2,4-oxadiazol-5-yl}methyl)pyrrolidin-1-yl]methyl}pyrrolidin-1-yl]-2-hydroxyethanone] |  |  |  | 106 | 15.3 |  | 78.1
Cc1nn(-c2noc(C3CCN(C4CCN(C(=O)CO)CC4)CC3)n2)c2c(F)cccc12 [Example 525, 1-{4-[3-(7-fluoro-3-methyl-1H-indazol-1-yl)-1,2,4-oxadiazol-5-yl]-1,4′-bipiperidin-1′-yl}-2-hydroxyethanone] |  |  |  | 86 | 18.1 |  | < 20

Continued, values first:

Emax [1] [%] | EC50 [1] [nM] | IC50 [2] [nM] | Emax [3] [%] | EC50 [3] [nM] | IC50 [4] [nM] | IC50 [5] [nM] | Compound
125 | 8.3 | 31.1 |  |  |  |  | COCCCN1CCC(c2nc(-n3nc(C(C)C)c4ccccc43)no2)CC1 [Example 85, 1-{5-[1-(3-methoxypropyl)piperidin-4-yl]-1,2,4-oxadiazol-3-yl}-3-(propan-2-yl)-1H-indazole]
43 | 3.7 | < 20 |  |  |  |  | CCc1nn(-c2noc(C3CCN(CCCOC)CC3)n2)c2c(F)cccc12 [Example 95, 3-ethyl-7-fluoro-1-{5-[1-(3-methoxypropyl)piperidin-4-yl]-1,2,4-oxadiazol-3-yl}-1H-indazole]
 |  |  | 82 | 14.6 |  | 20.5 | COCCN(CC1CCCO1)C1CC(c2nc(-n3nc(C(C)C)c4cccc(F)c43)no2)C1 (centres unmarked) [Example 612, 3-{3-[7-fluoro-3-(propan-2-yl)-1H-indazol-1-yl]-1,2,4-oxadiazol-5-yl}-N-(2-methoxyethyl)-N-(tetrahydrofuran-2-ylmethyl)cyclobutanamine]
 |  |  | 70 | 12 |  | < 20 | CC(C)c1nn(-c2noc(C[C@@H]3CCN(CC4CN(S(C)(=O)=O)C4)C3)n2)c2c(F)cccc12 [Example 514, 7-fluoro-1-(5-{[(3S)-1-{[1-(methylsulfonyl)azetidin-3-yl]methyl}pyrrolidin-3-yl]methyl}-1,2,4-oxadiazol-3-yl)-3-(propan-2-yl)-1H-indazole]
 |  |  | 99 | 2.7 |  | < 20 | CC(=O)N1CCC(N[C@H]2C[C@@H](c3nc(-n4nc(C(C)C)c5cccc(F)c54)no3)C2)CC1 [Example 593, 1-{4-[(cis-3-{3-[7-fluoro-3-(propan-2-yl)-1H-indazol-1-yl]-1,2,4-oxadiazol-5-yl}cyclobutyl)amino]piperidin-1-yl}ethanone]
 |  |  | 104 | 8.4 |  | 24.3 | CC(C)c1nn(-c2noc([C@H]3CC[C@@H](NCCC4CN(S(C)(=O)=O)C4)CC3)n2)c2c(F)cccc12 [Example 617, cis-4-{3-[7-fluoro-3-(propan-2-yl)-1H-indazol-1-yl]-1,2,4-oxadiazol-5-yl}-N-{2-[1-(methylsulfonyl)azetidin-3-yl]ethyl}cyclohexanamine]
